Reference: patent publication US20130259844A1, “Fermented Foodstuff” (University of Plymouth, priority 2010, published 2013)

What was measured:
[1] = Fermentation of second milk substrate (milk replacer for calves), pH monitoring; settings: incubated at 30° C.
Procedure: (§1) Lactic acid producing bacteria listed in Table 1 were tested for their ability to ferment two milk substrates according to the following procedures:
(§2) A commercially available dried skimmed milk powder was prepared according to the manufacturer's instructions to provide a first milk substrate. A milk replacer for calves (70 g) was mixed with water (100 g) to provide a second milk substrate. Both substrates were placed in a steamer for 30 minutes/day for each of 3 days for sterilisation.
(§3) Each lactic acid producing bacteria was grown in MRS broth (ex Oxoid) for 24 hours at 37° C.
(§4) 100 ml of each milk substrate was inoculated with 100 μl of the culture of each lactic acid producing bacteria. The samples were incubated at 30° C. for 48 hours. The ability of the bacteria to ferment the milk substrate was determined by monitoring the pH at intervals during the incubation of 0, 8, 24, 32 and 48 hours, with a reduction in the pH indicating the production of lactic acid. The results for the first and second milk substrates are set out in Tables 3 and 4 respectively.

[2] = Fermentation of first milk substrate (dried skimmed milk powder), pH monitoring; settings: incubated at 30° C.
Procedure: as §1, §2, §3, §4

Substance	pH ([1]; 0 h)	pH ([1]; 8 h)	pH ([1]; 24 h)	pH ([1]; 32 h)	pH ([1]; 48 h)	pH ([2]; 0 h)	pH ([2]; 8 h)	pH ([2]; 24 h)	pH ([2]; 32 h)	pH ([2]; 48 h)
Lactobacillus plantarum [NCIMB 41605]	6.13	6.46	6.51	5.90	5.72	6.69	6.65	6.09	5.22	4.60
Lactobacillus plantarum [NCIMB 41607]	5.54	5.69	5.75	5.61	4.80	6.69	6.62	5.83	5.08	4.53
Lactobacillus plantarum [NCIMB 41608]	6.12	6.44	6.50	6.25	5.71	6.69	6.65	5.85	4.96	4.45
Lactobacillus salivarius ss. Salivarius [NCIMB 41606]	5.82	6.03	6.01	5.92	5.37	6.69	6.61	5.55	4.76	4.35
Lactobacillus salivarius ss. Salivarius [NCIMB 41609]	5.55	5.69	5.70	5.58	4.93	6.69	6.62	5.72	4.98	4.56
Lactobacillus salivarius ss. Salivarius [NCIMB 41610]	5.55	5.67	5.72	5.54	4.76	6.69	6.68	5.69	4.96	4.46
